Experimental data from patent US7615377B2, “Fluorescein-based metal sensors” (Massachusetts Institute of Technology, priority 2003, dated 2009).
Read-outs that look alike come from different tables or passages of the source. Each block holds one molecule with its values, some of them ahead of it.

Experiments:
[1] = Selectivity of mercury-induced fluorescence in the presence of other metal ions; type: binding; settings: for fluorescence increase upon addition of Hg^2+: 1 μM probe, excitation 500 nm
Procedure: Selectivity of Mercury-Induced Fluorescence in the Presence of Other Metal Ions. The selectivity of MS1 for Hg^2+ against a background of various alkali, alkaline earth, transition metal ions, and Zn(II), Cd(II) or Pb(II) was investigated by using fluorescence spectroscopy. Aqueous metal ion solutions of Li(I), Na(I), Rb(I), Mg(II), Ca(II), Sr(II), Ba(II), Mn(II), Co(II), Ni(II), Cd(II), and Hg^2+ were prepared from the chloride salts. The Cu(II) solution was prepared from copper sulfate and the Pb(II) was prepared from lead nitrate. A solution of Cr(III) was prepared from chromium acetate and stored at pH 1. Solutions of Fe(II) were prepared immediately before use with ferrous ammonium sulfate and water that was thoroughly purged with Ar. All stock solutions were ˜10 mM, with the exception of 100 mM NaCl. In a typical experiment, the emission spectrum of the free dye was recorded. A 20 μL aliquot of a ˜10 mM metal solution was then added to a 1 μM solution of MS1 (3 mL, for a concentration of metal ion at about 1 to about 50 ppm, depending on the molecular weight of the metal ion tested) and the emission spectrum was recorded with excitation at 500 nm. Subsequently, a 20 μL portion of 10 mM HgCl2 was added and the emission spectrum was obtained. The spectra were integrated from 510-650 nm and normalized with respect to the free dye.

[2] = Quantum yield and extinction coefficient measurements (reference fluorescein in 0.1 N NaOH); type: physicochemical
Description: Quantum yield, Φ, may be obtained by comparison of the integrated area of the corrected emission spectrum of the sample with that of a reference solution. A preferred reference solution is a solution of fluorescein in 0.1 N NaOH, quantum efficiency 0.95. The concentration of the reference is adjusted to match the absorbance, Abs, of the test sample. The quantum yields may be calculated using the following equation: […]
Optical Absorption Spectroscopy. UV-visible spectra were obtained by using either a Cary IE scanning spectrophotometer or a Hewlet Packard diode array spectrophotometer. Both instruments were controlled by Pentium PCs and were run using the manufacturer supplied software packages. A circulating water bath was used during acquisition to maintain the temperature at 25.0° C.±1.0° C. Samples were contained in 1-cm path length quartz cuvettes (3.5 mL volume). All manipulations were performed at least three times.
Quantum Yield Measurements. The quantum yield of MS1 was determined by comparison to fluorescein in 0.1 N NaOH (φ=0.95) as a reference. In a typical experiment, a 6 mL solution of ˜1 μM MS1 was prepared. For metal-free studies, 10 μL of 100 mM K4EDTA was added to chelate any adventitious metal ions. To determine the quantum efficiencies of the metal-bound dye, 10 μL of a 10 mM HgCl2 solution was added to a 1 μM MS1 solution. The concentration of the reference solution was adjusted such that Amax (490 nm) equaled Amax of MS1 (505 nm) or Amax of the Hg^2+ complex (501 nm), and the excitation wavelength was chosen as the wavelength determined from where the reference and probe excitation spectra intersect. Excitation was at 497 nm for MS1 and at 496 nm for the Hg^2+ complex. Emission spectra were integrated from 510-650 nm and the quantum yields were calculated standard methods.

[3] = Fluorescence response of sensor to Hg^2+ (fluorescence spectroscopy, integrated emission); type: binding
Procedure: General Spectroscopic Procedures. Ultrol grade PIPES (piperazine-N,N′-bis(2-ethanesulfonic acid) from Calbiochem, KCl (99.997%) and anhydrous HgCl2 (99.998%) were purchased and used as received. Millipore filtered water was used to prepare all aqueous solutions. With the exception of the pKa determination, all spectroscopic measurements were conducted at neutral pH with 50 mM PIPES, 100 mM KCl buffer adjusted to pH 7. An Orion glass electrode, calibrated prior to use, was employed to record solution pH. Mercury solutions were prepared from 10 mM stock solutions of HgCl2. Stock solutions of MS1 (1 mM in DMSO) was prepared, stored at −4° C., and thawed in the dark immediately prior to use. After addition of this stock solution to aqueous buffers, the resulting solution contained 0.1% DMSO for fluorescence and 1% DMSO for absorption measurements. The KaleidaGraph software package was used to manipulate all spectral data.
Fluorescence Spectroscopy. Emission spectra were obtained with a Hitachi F-3010 spectrofluorimeter linked to a Pentium PC running the SpectraCalc software package. A rhodamine quantum counter was used to normalize the spectra for excitation intensity, and manufacturer-supplied correction curves were used to normalize the emission spectra. Manufacturer supplied photomultiplier curves were used to correct for emission intensity. A circulating water bath was used during all experiments to regulate the temperature at 25.0° C.±0.1° C. Spectra were obtained with 3 nm slit widths and either a 240 nm/min or 600 nm/min scan speed. All measurements were conducted at least in triplicate.

[4] = Determination of protonation constants (fluorescence dependence on pH); type: physicochemical; settings: 10 mM KOH, 1 μM probe; for pKa, formation of a non-fluorescent isomer / pKa, protonation of the tertiary amine: 100 mM KCl, pH ~12 to ~3; for pKa: aqueous solution of 100 mM KCl
Procedure: Determination of Protonation Constants. The pKa values for MS1 affect fluorescence were determined by plotting the integrated emission intensity versus pH from ˜12 to ˜4. In a typical experiment, a 30 mL solution of 1 μM MS1 in 100 mM KCl, 10 mM KOH was prepared (pH ˜12). Aliquots of 6 N, 2 N, 1 N, 0.5 N, and 0.5 N HCl were added to achieve pH changes of approximately […], and the emission spectrum was recorded after each addition. […] Upon excitation at 500 nm, the emission spectra were integrated over the range 510 nm to 650 nm, normalized and plotted against pH. The data were fit to the non-linear expression previously described.

[5] = Water solubility of the probe; type: physicochemical
[6] = Reversibility of Hg^2+ binding upon addition of TPEN
[7] = pH 7, metal-free, at absorption maximum (497 nm sensor 1; 505 nm MS1)
[8] = pH 7, with Hg^2+, at absorption maximum (500 nm sensor 1; 501 nm MS1)

Structure (SMILES): O=C(O)c1ccccc1-c1c2cc(Cl)c(=O)cc-2oc2c(CN(CCS)Cc3ccccn3)c(O)ccc12 [sensor 1]
- selectivity of fluorescence increase for Hg^2+ over other cations ([1]; pH 7): selective for Hg^2+
- fluorescence increase upon addition of Hg^2+ ([1]; pH 7 (50 mM PIPES, 100 mM KCl)): 1.5 fold
- fluorescence increase upon addition of Hg^2+ ([1]; pH 7 (50 mM PIPES, 100 mM KCl), listed as Sensor 1): ~2.5 fold
- selectivity of fluorescence increase for Hg^2+ over other cations ([1]; pH 11): selective for Hg^2+
- fluorescence increase upon addition of Hg^2+ ([1]; pH 11 (50 mM CABS, 100 mM KCl)): 5 fold
- quantum yield, free sensor ([2]; pH 7, metal-free): 0.27
- extinction coefficient (epsilon), free sensor [2, 7]: 61,600 M^−1 cm^−1
- quantum yield, Hg^2+-bound ([2]; pH 7, with Hg^2+): 0.27
- extinction coefficient (epsilon), Hg^2+-bound [2, 8]: 69,000 M^−1 cm^−1
- quantum yield, free sensor ([2]; pH 11, metal-free): 0.07
- extinction coefficient (epsilon), free sensor ([2]; pH 11, metal-free, 504 nm): 60,800 M^−1 cm^−1
- quantum yield, Hg^2+-bound ([2]; pH 11, with Hg^2+): 0.24
- extinction coefficient (epsilon), Hg^2+-bound ([2]; pH 11, with Hg^2+, 507 nm): 78,300 M^−1 cm^−1
- increase in integrated emission upon addition of Hg^2+ ([3]; pH 11 (50 mM CABS, 100 mM KCl), 0-3 equivalents Hg^2+, excitation 504 nm): ~6 fold
- pKa, formation of a non-fluorescent isomer [4]: 4.6
- pKa, protonation of the tertiary amine [4]: 8.2

Structure (SMILES): CC(C)(S)CN(Cc1ccccn1)Cc1c(O)ccc2c(-c3ccccc3C(=O)O)c3cc(Cl)c(=O)cc-3oc12 [sensor 2]
- selectivity of fluorescence increase for Hg^2+ over other cations ([1]; pH 7): selective for Hg^2+
- fluorescence increase upon addition of Hg^2+ ([1]; pH 7 (50 mM PIPES, 100 mM KCl)): 1.5 fold
- selectivity of fluorescence increase for Hg^2+ over other cations ([1]; pH 11): selective for Hg^2+
- fluorescence increase upon addition of Hg^2+ ([1]; pH 11 (50 mM CABS, 100 mM KCl)): 6 fold
- pKa, formation of a non-fluorescent isomer [4]: 4.7
- pKa, protonation of the tertiary amine [4]: 8.0

- water solubility [5]: water-soluble
- absorption maximum, free sensor ([2]; pH 7): 505 nm
- increase in brightness upon Hg^2+ binding ([2]; pH 7): ~3.3 fold
- emission maximum, free sensor ([2]; pH 7, 50 mM PIPES, 100 mM KCl, EDTA present): 524 nm
- quantum yield, free sensor ([2]; pH 7, metal-free): 0.04
- extinction coefficient (epsilon), free sensor [2, 7]: 61,400 M^−1 cm^−1
- extinction coefficient (epsilon), free sensor ([2]; pH 7, metal-free, at absorption maximum (497 nm sensor 1; 505 nm MS1), listed as MS1): 61,300 M^−1 cm^−1
- absorption maximum, Hg^2+-bound ([2]; pH 7, with Hg^2+): 501 nm
- emission maximum, Hg^2+-bound ([2]; pH 7, with Hg^2+): 528 nm
- quantum yield, Hg^2+-bound ([2]; pH 7, with Hg^2+): 0.11
- extinction coefficient (epsilon), Hg^2+-bound [2, 8]: 73,200 M^−1 cm^−1
- EC50 ([3]; 500 nM probe, pH 7, read-out: EC50 (concentration of Hg^2+ required to achieve 50% of maximum fluorescence)): 410 nM
- pKa ([4]; pH ~12 to ~3, read-out: pKa, formation of a non-fluorescent isomer): 4.8
- pKa ([4]; pH ~12 to ~3, read-out: pKa, protonation of the aniline nitrogen atom): 7.1
- reversibility of Hg^2+ binding [6]: reversibly
- fluorescence after TPEN addition, distance from the background value ([6]; 1 equivalent TPEN added to stoichiometric mixture of sensor and Hg^2+): ≤ 20%
Structure (SMILES): CCSCCN(CCSCC)Cc1ccccc1NCc1c(O)ccc2c(-c3ccccc3C(=O)O)c3cc(Cl)c(=O)cc-3oc12 [sensor 3, 2-{5-[(2-{[Bis-(2-ethylsulfanyl-ethyl)-amino]-methyl}-phenylamino)-methyl]-2-chloro-6-hydroxy-3-oxo-3H-xanthen-9-yl}-benzoic acid]
- Hg response in a background of alkali and alkaline earth metals ([1]; Li(I), Na(I), Rb(I), Mg(II), Ca(II), Sr(II), Ba(II)): unaffected
- effect of Zn(II), Cd(II), Cr(III), Pb(II) on fluorescence response to Hg^2+ ([1]; Zn(II), Cd(II), Cr(III), Pb(II) background): do not inhibit
- interference of first-row transition metal ions with Hg^2+-induced fluorescence increase ([1]; first-row transition metal ions): only Cu(II) interferes
- selectivity of fluorescence increase for Hg^2+ over other cations ([1]; pH 7): selective for Hg^2+
- increase in quantum yield upon Hg^2+ coordination ([2]; pH 7): ~2.75 fold
- increase in integrated emission upon addition of Hg^2+ ([3]; pH 7 (50 mM PIPES, 100 mM KCl)): ~7 fold
- increase in integrated emission upon addition of Hg^2+ ([3]; pH 7 (50 mM PIPES, 100 mM KCl), listed as MS1): ~5 fold
- normalized integrated emission versus cycle number, Hg^2+/TPEN cycles ([6]; 1 μM sensor, 1 equiv Hg^2+ and 1 equiv TPEN alternately, excitation 500 nm): restoration and decrease of fluorescence upon addition of 1 equiv Hg^2+ and 1 equiv TPEN, respectively, over the course of five cycles

Structure (SMILES): O=C(O)c1ccccc1-c1c2cc(Cl)c(=O)cc-2oc2c(CNc3ccccc3CN(CCS)Cc3ccccn3)c(O)ccc12 [sensor 4]
- fluorescence response upon addition of Hg^2+ ([3]; crude reaction mixture from the synthesis, in the presence of chloride ion): positive fluorescence response

Structure (SMILES): CCSCCSCCN(CCSCCSCC)Cc1ccccc1NCc1c(O)ccc2c(-c3ccccc3C(=O)O)c3cc(Cl)c(=O)cc-3oc12 [sensor 6]
- fluorescence change upon Hg^2+ coordination [3]: fluorescence decrease

Structure (SMILES): CCSCCN(CCSCC)Cc1c2oc3c(CN(CCSCC)CCSCC)c(O)c(Cl)cc3c(-c3ccccc3C(=O)O)c-2cc(Cl)c1=O [sensor 7]
- fluorescence change upon Hg^2+ coordination [3]: fluorescence decrease
